Laboratory results: patent US20090197942A1, “Method For Producing Polyphenol-Rich Composition” (KYUSAI CO., LTD., priority 2006, published 2009)

Test system: spontaneously hypertensive rats (SHR)
Assay: Test for inhibiting hypertension in rats (systolic BP at the tail pulse), SHR
Assay type: in vivo
Conditions: for changes in blood pressure (inhibition of hypertension): male SHR, oral once a day for 8 weeks, quercetin 0.3-2.7 mg/day/kg and/or arginine 0.03-0.15 mg/day/kg, FIG. 2
Method: Quercetin was extracted by adding 100 g of washed onion skins to 10 liters of water heated to 80° C., and impurities were removed to obtain quercetin-containing solution. The amount of quercetin contained in the quercetin-containing solution was 0.1 mg/ml. The quercetin-containing solution was appropriately concentrated with an evaporator.
11 week old male spontaneously hypertensive rats (SHR) were divided into A to I groups (9 groups consisting of 5 rats per group) and 11 week old male normotensive Wistar Kyoto (WKY) rats were divided into J to L groups (3 groups consisting of 5 rats per group) so that averages of weight and blood pressure (BP) of the respective groups were nearly equal. They were pre-bred in each breeding cage at 22.0±1.0° C. temperature, 60±10% of humidity and 12 hour light-dark cycles for a week while taking feeds and water ad libitum.
After the pre-breeding period, they were bred with the same conditions for 8 weeks. The quercetin-containing solution obtained in the above-mentioned preparation method and commercially-available arginine powder (produced by Ajinomoto Co., Inc.) were blended together so that amounts of quercetin and arginine would be the respective amounts in Table 7, below. Each mixture was orally administered to the rats in each group once a day. The rats took feed and water ad libitum during the test.
The blood pressure (BP) of rats was measured once a week. After each rat was warmed and climatized itself in a warmer at 38° C. for a few minutes, a systolic BP at the tail pulse was measured with an automatic sphygmomanometer (BP-98A; Softron Co., Ltd.) In each rat, the BP was measured for three times per one measurement and an average of the three measured values was recorded.

| SMILES | changes in blood pressure (inhibition of hypertension) | inhibition of hypertension with purified quercetin instead of quercetin-containing solution (same test, purified quercetin used instead of the quercetin-containing solution) |
| --- | --- | --- |
| N=C(N)NCCC[C@H](N)C(=O)O [arginine] | hypertensions were inhibited |  |
| O=c1c(O)c(-c2ccc(O)c(O)c2)oc2cc(O)cc(O)c12 [purified quercetin, quercetin] |  | a similar result can be achieved |
| O=c1c(O)c(-c2ccc(O)c(O)c2)oc2cc(O)cc(O)c12 [quercetin] | hypertensions were inhibited |  |
